Tested on: 171881-019-R-J1-PDC tumor spheroid viability
Assay: Anticancer human tumor 171881-019-R-J1-PDC patient-derived invasive breast carcinoma cell line growth inhibition [PI3K]
Conditions: spheroids with HUVEC and MSC; for IC50: curve of first compound; for viability, T/C: stronger effect = lower value
Outline: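 Tumor cells were combined with HUVEC and MSCs into spheroids, then dosed with PI3K-inhibitor combinations over half-log ranges capped near clinical Cmax or 10 microM.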

[1] = second compound 0.00316 µM, first compound 0.0316 µM
[2] = second compound 0.00316 µM, first compound 0.1 µM
[3] = second compound 0.00316 µM, first compound 0.316 µM
[4] = second compound 0.00316 µM, first compound 1 µM
[5] = second compound 0.01 µM, first compound 0.0316 µM
[6] = second compound 0.01 µM, first compound 0.1 µM
[7] = second compound 0.01 µM, first compound 0.316 µM
[8] = second compound 0.01 µM, first compound 1 µM
[9] = second compound 0.0316 µM, first compound 0.0316 µM
[10] = second compound 0.0316 µM, first compound 0.1 µM
[11] = second compound 0.0316 µM, first compound 0.316 µM
[12] = second compound 0.0316 µM, first compound 1 µM
[13] = second compound 0.1 µM, first compound 0.0316 µM
[14] = second compound 0.1 µM, first compound 0.1 µM
[15] = second compound 0.1 µM, first compound 0.316 µM
[16] = second compound 0.1 µM, first compound 1 µM
[17] = second compound 0.316 µM, first compound 0.0316 µM
[18] = second compound 0.316 µM, first compound 0.1 µM
[19] = second compound 0.316 µM, first compound 0.316 µM
[20] = second compound 0.316 µM, first compound 1 µM
[21] = second compound 1 µM, first compound 0.0316 µM
[22] = second compound 1 µM, first compound 0.1 µM
[23] = second compound 1 µM, first compound 0.316 µM
[24] = second compound 1 µM, first compound 1 µM
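Note: spheroids exposed to compound for 7 days before viability read.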
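Throughout, for viability, T/C: 100% = DMSO vehicle-treated spheroids.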

## CC(C)NCC(C(=O)N1CCN(c2ncnc3c2C(C)CC3O)CC1)c1ccc(Cl)cc1 (centres undefined) + COc1c(OCCCN2CCOCC2)ccc2c3n(c(=NC(=O)c4cnc(N)nc4)nc12)CCN3
Second compound 0.00316 µM
  IC50: 200 nM
Second compound 0.01 µM
  IC50: < 31.6 nM
Second compound 0.0316 µM
  IC50: < 31.6 nM
Second compound 0.1 µM
  IC50: < 31.6 nM
Second compound 0.316 µM
  IC50: < 31.6 nM
Second compound 1 µM
  IC50: < 31.6 nM
[1]
  viability, T/C: 63.8%
[2]
  viability, T/C: 57%
[3]
  viability, T/C: 44.8%
[4]
  viability, T/C: 27.6%
Second compound 0.00316 µM, first compound 3.16 µM
  viability, T/C: 11.6%
Second compound 0.00316 µM, first compound 10 µM
  viability, T/C: 8.17%
[5]
  viability, T/C: 48.5%
[6]
  viability, T/C: 47%
[7]
  viability, T/C: 36.4%
[8]
  viability, T/C: 24.1%
Second compound 0.01 µM, first compound 3.16 µM
  viability, T/C: 12.4%
Second compound 0.01 µM, first compound 10 µM
  viability, T/C: 8.98%
[9]
  viability, T/C: 25%
[10]
  viability, T/C: 24.9%
[11]
  viability, T/C: 25.8%
[12]
  viability, T/C: 14.4%
Second compound 0.0316 µM, first compound 3.16 µM
  viability, T/C: 8.88%
Second compound 0.0316 µM, first compound 10 µM
  viability, T/C: 5.68%
[13]
  viability, T/C: 7.43%
[14]
  viability, T/C: 8.22%
[15]
  viability, T/C: 8.03%
[16]
  viability, T/C: 6.41%
Second compound 0.1 µM, first compound 3.16 µM
  viability, T/C: 5.14%
Second compound 0.1 µM, first compound 10 µM
  viability, T/C: 3.1%
[17]
  viability, T/C: 1.9%
[18]
  viability, T/C: 2.03%
[19]
  viability, T/C: 2.26%
[20]
  viability, T/C: 2.16%
Second compound 0.316 µM, first compound 3.16 µM
  viability, T/C: 1.57%
Second compound 0.316 µM, first compound 10 µM
  viability, T/C: 1.13%
[21]
  viability, T/C: 0.99%
[22]
  viability, T/C: 1.4%
[23]
  viability, T/C: 1.49%
[24]
  viability, T/C: 1.35%
Second compound 1 µM, first compound 3.16 µM
  viability, T/C: 1.05%
Second compound 1 µM, first compound 10 µM
  viability, T/C: 0.68%

## CCN1CCN(Cc2ccc(Nc3ncc(F)c(-c4cc(F)c5nc(C)n(C(C)C)c5c4)n3)nc2)CC1 + COc1c(OCCCN2CCOCC2)ccc2c3n(c(=NC(=O)c4cnc(N)nc4)nc12)CCN3
Second compound 0.00316 µM
  IC50: > 1000 nM
Second compound 0.01 µM
  IC50: > 1000 nM
Second compound 0.0316 µM
  IC50: < 3.16 nM
Second compound 0.1 µM
  IC50: < 3.16 nM
Second compound 0.316 µM
  IC50: < 3.16 nM
Second compound 1 µM
  IC50: < 3.16 nM
Second compound 0.00316 µM, first compound 0.00316 µM
  viability, T/C: 71.9%
Second compound 0.00316 µM, first compound 0.01 µM
  viability, T/C: 73.1%
[1]
  viability, T/C: 83.8%
[2]
  viability, T/C: 80.4%
[3]
  viability, T/C: 93.8%
[4]
  viability, T/C: 99.6%
Second compound 0.01 µM, first compound 0.00316 µM
  viability, T/C: 48.9%
Second compound 0.01 µM, first compound 0.01 µM
  viability, T/C: 56.9%
[5]
  viability, T/C: 53.6%
[6]
  viability, T/C: 63.8%
[7]
  viability, T/C: 69%
[8]
  viability, T/C: 83.2%
Second compound 0.0316 µM, first compound 0.00316 µM
  viability, T/C: 27.4%
Second compound 0.0316 µM, first compound 0.01 µM
  viability, T/C: 31.5%
[9]
  viability, T/C: 33.8%
[10]
  viability, T/C: 36.9%
[11]
  viability, T/C: 44.6%
[12]
  viability, T/C: 50.6%
Second compound 0.1 µM, first compound 0.00316 µM
  viability, T/C: 10.5%
Second compound 0.1 µM, first compound 0.01 µM
  viability, T/C: 10.2%
[13]
  viability, T/C: 12.2%
[14]
  viability, T/C: 12.8%
[15]
  viability, T/C: 16%
[16]
  viability, T/C: 23.8%
Second compound 0.316 µM, first compound 0.00316 µM
  viability, T/C: 2.23%
Second compound 0.316 µM, first compound 0.01 µM
  viability, T/C: 2.11%
[17]
  viability, T/C: 2.24%
[18]
  viability, T/C: 2.94%
[19]
  viability, T/C: 4.39%
[20]
  viability, T/C: 7.79%
Second compound 1 µM, first compound 0.00316 µM
  viability, T/C: 0.86%
Second compound 1 µM, first compound 0.01 µM
  viability, T/C: 1.08%
[21]
  viability, T/C: 1.81%
[22]
  viability, T/C: 1.03%
[23]
  viability, T/C: 1.58%
[24]
  viability, T/C: 2.28%
